Results from patent US7750011B2, “Diazabicyclic aryl derivatives and their medical use” (Neurosearch A/S, priority 2005, dated 2010).
Where a name gives a salt, the structure may show the parent alone.

Target: T1, α7-subtype of nicotinic receptors (Rattus norvegicus, UniProt Q05941)
T1 construct: Cerebral cortices from male Wistar rats (150-250 g) are homogenised; from tissue; host or cells: rat cerebral cortex membrane homogenate (male Wistar rats)
Experiment: In vitro inhibition of 3H-α-bungarotoxine binding in rat brain
Settings: rat cerebral cortex homogenate; 3H-α-bungarotoxine 2 nM; 2 hours at 37° C

T1 sequence (Q05941 23-502): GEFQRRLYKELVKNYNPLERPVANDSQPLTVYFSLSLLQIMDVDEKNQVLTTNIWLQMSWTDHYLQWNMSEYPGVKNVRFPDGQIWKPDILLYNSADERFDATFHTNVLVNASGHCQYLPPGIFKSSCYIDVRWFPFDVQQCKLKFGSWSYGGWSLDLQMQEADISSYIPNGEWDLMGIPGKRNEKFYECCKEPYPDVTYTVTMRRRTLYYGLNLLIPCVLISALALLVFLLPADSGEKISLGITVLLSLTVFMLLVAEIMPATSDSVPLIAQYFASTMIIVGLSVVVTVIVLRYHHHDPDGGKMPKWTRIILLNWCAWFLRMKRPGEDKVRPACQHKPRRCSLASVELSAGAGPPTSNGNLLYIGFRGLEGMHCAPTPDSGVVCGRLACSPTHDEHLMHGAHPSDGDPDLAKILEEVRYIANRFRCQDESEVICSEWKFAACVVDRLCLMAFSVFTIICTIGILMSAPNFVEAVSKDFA

CN1C[C@@H]2C[C@H]1CN2c1ccc(C#Cc2ccccc2)nn1 [Compound 2, 2-Methyl-5-(6-phenylethynyl-pyridazin-3-yl)-(1S,4S)-2,5-diaza-bicyclo[2.2.1]heptane fumaric acid salt]
IC50: 2000 nM
